Experimental data: the supplement of paper PMC6580486

Experiments:
PCB490-4 = test system: PCB490-4 (human epithelioid sarcoma primary culture)
Method: (§1)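 Roche open-access kinase inhibitor screen (223 compounds) on human epithelioid sarcoma primary cultures from three spatially distinct regions of tumor PCB490. 384-well plates, 72 h, CellTiter-Glo viability; IC50 by Hill curve fit. 100000 nM = no IC50 reached. Compound ids carry a plate-well prefix, which is stripped.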

PCB490-3 = test system: PCB490-3 (human epithelioid sarcoma primary culture)
Method: as §1

PCB490-5 = test system: PCB490-5 (human epithelioid sarcoma primary culture)
Method: as §1

Row | Compound | IC50 cell viability (PCB490-4) [µM] | IC50 cell viability (PCB490-3) [µM] | IC50 cell viability (PCB490-5) [µM] | IC50 cell viability (U23674) [µM]
1 | Nc1c(C(=O)c2cccc(OCCN3CCOCC3)c2)cnn1-c1ccc(F)cc1 | > 100 | > 100 | > 100 | 
2 | Nc1c(C(=O)c2cccc(-c3ccc[n+]([O-])c3)c2)cnn1-c1ccc(F)cc1F | > 100 | > 100 | > 100 | 
3 | Cn1cc(C2=C(c3cn(CCCCCO)c4ccccc34)C(=O)NC2=O)c2ccccc21 | > 100 | > 100 | > 100 | 
4 | COc1ccc2c(c1)C(c1ccccc1Cl)=Nc1c(n[nH]c1C)N2 | > 100 | > 100 | > 100 | 
5 | Cn1c(=O)c(Oc2ccc(F)cc2F)cc2cnc(N[C@H]3CCOC3)nc21 | > 100 | > 100 | > 100 | 
6 | CC(CO)Nc1cc(-c2[nH]c3cccnc3c2-c2ccc(F)cc2)ccn1 (stereo unspecified) | > 100 | > 100 | > 100 | 
7 | N#Cc1c(C(=O)c2ccccc2)cnn1-c1ccccc1 | > 100 | > 100 | > 100 | 
8 | O=C1NC(=NCc2ccccc2)S/C1=C\c1ccc2ncccc2c1 | > 100 | > 100 | > 100 | 
9 | Cn1cc(C2=C(c3cn(CCCN=C(N)N)c4ccccc34)C(=O)NC2=O)c2ccccc21 | > 100 | > 100 | > 100 | 
10 | O=C1NC(=NCc2ccccc2Cl)S/C1=C\c1ccc2ncccc2c1 | > 100 | > 100 | > 100 | 
11 | O=C1NC(=NCC(CO)c2ccccc2)S/C1=C\c1ccc2ncccc2c1 (stereo unspecified) | > 100 | > 100 | > 100 | 
12 | Cn1cc(C2=C(c3cccc(OCC(O)CO)c3)C(=O)NC2=O)c2ccccc21 (stereo unspecified) | > 100 | > 100 | > 100 | 
13 | Cn1c(=O)c(Oc2ccc(F)cc2F)cc2cnc(NC3CCS(=O)(=O)CC3)nc21 | > 100 | > 100 | > 100 | 
14 | Cn1c(=O)c(Oc2ccc(F)cc2F)cc2cnc(NC(C)(C)CO)nc21 | > 100 | > 100 | > 100 | 
15 | Fc1ccc(-c2c(-c3ccncc3)nc3n2CCS3)cc1 |  |  |  | > 10
16 | COc1ccc(-c2cc3c(N)ncnc3o2)cc1 |  |  |  | > 10
17 | O=C1NC(=O)C(c2ccc(Cl)cc2)=C1Nc1ccc(Cl)c(C(=O)O)c1 |  |  |  | 3.9
18 | COC(=O)c1cncc(/C=C/c2c(C)cc(O)cc2C)c1 |  |  |  | > 10
19 | CCCN(CCS(C)(=O)=O)Cc1ccc(-c2ccc3ncnc(Nc4ccc(OCc5cccc(F)c5)c(Cl)c4)c3c2)o1 |  |  |  | > 10
20 | COc1c(C(N)=O)cc(-c2ccc(Cl)cc2)cc1-c1ccc(S(N)(=O)=O)cc1 |  |  |  | > 10
21 | CN(C)CCOc1ccc(-c2cc(-c3ccc4c(c3)CCC4=NO)c(-c3ccncc3)o2)cc1 |  |  |  | > 10

Row | Compound | IC50 cell viability (PCB490-4) [µM] | IC50 cell viability (PCB490-3) [µM] | IC50 cell viability (PCB490-5) [µM] | IC50 cell viability (U23674) [µM]
22 | FC(F)(F)c1ccc(-c2nn3ncccc3c2-c2ccnc(Nc3ccc4c(c3)OCCO4)n2)cc1 |  |  |  | > 10
23 | Cc1cc(O)cc(C)c1/C=C/c1cncc(C(N)=O)c1 |  |  |  | > 10
24 | COc1cccc(/C=N/Nc2ncnc3c2cnn3-c2cccc(OC)c2)c1 |  |  |  | > 10
25 | Fc1cccc(COc2ccc(Nc3ncnc4sc(-c5cccs5)cc34)cc2Cl)c1 |  |  |  | > 10
26 | CN(C)C(=O)O[C@@H]1CN[C@@H](C#Cc2cc3ncnc(Nc4ccc(OCc5cccc(F)c5)c(Cl)c4)c3s2)C1 |  |  |  | > 10
27 | O=C(Nc1ccc(Oc2ccc3nc(NC(=O)c4ccccc4)[nH]c3c2)cc1)Nc1cc(C(F)(F)F)ccc1F |  |  |  | > 10
28 | COc1cc2ncnc(Nc3ccc(C)c(O)c3)c2cc1OC |  |  |  | > 10
29 | CN(C)c1cc2c(Nc3ccc4nc(Cc5ccccc5)[nH]c4c3)ncnc2cn1 |  |  |  | > 10
30 | Cc1ccc2c(-c3ccnc(Nc4cccc(C(F)(F)F)c4)n3)c(-c3ccccc3)nn2n1 |  |  |  | > 10
31 | COc1cccc(-n2cnc3c(N/N=C/c4ccncc4)ncnc32)c1 |  |  |  | > 10
32 | COc1cc2ncnc(Nc3ccc4c(cnn4Cc4ccccc4)c3)c2cc1OC |  |  |  | > 10
33 | COC(=O)Nc1nc2ccc(Oc3ccc(NC(=O)Nc4cccc(Cl)c4)cc3)cc2[nH]1 |  |  |  | > 10
34 | O=C(Nc1n[nH]c2nc(-c3ccco3)c(Br)cc12)C1CC1 |  |  |  | > 10
35 | c1ccc(Oc2ccc(Nc3ncc(-c4ccccc4)o3)cc2)cc1 |  |  |  | > 10
36 | O=C(NCC1CC1)c1ccc(-c2cccc(C(=O)NC3CC3)c2)cc1 |  |  |  | > 10
37 | CS(=O)(=O)Nc1ccc(-c2cc(-c3ccccc3)cc(C(N)=O)c2N)cc1 |  |  |  | > 10
38 | CCn1c(-c2nonc2N)nc2ccncc21 |  |  |  | > 10
39 | O=C1Nc2ccc(C(=O)c3ccco3)cc2/C1=C/c1cc(Cl)c(O)c(Cl)c1 |  |  |  | > 10
40 | c1ccc(-c2nc3n(c2-c2ccc4c(c2)OCO4)CCC3)nc1 |  |  |  | > 10
41 | CS(=O)(=O)CCNCc1ccc(-c2ccc3ncnc(Nc4ccc(OCc5ccccc5)c(C(F)(F)F)c4)c3c2)o1 |  |  |  | > 10
42 | Cc1ccc2c(-c3ccnc(Nc4ccccc4)n3)c(-c3ccc(F)cc3)nn2n1 |  |  |  | > 10

Row | Compound | IC50 cell viability (PCB490-4) [µM] | IC50 cell viability (PCB490-3) [µM] | IC50 cell viability (PCB490-5) [µM] | IC50 cell viability (U23674) [µM]
43 | Cc1cccc(-c2[nH]ncc2-c2ccc3ncccc3n2)n1 |  |  |  | > 10
44 | CN1CCC(C(=O)Nc2n[nH]c3nnc(-c4ccccc4)cc23)CC1 |  |  |  | > 10
45 | NS(=O)(=O)c1ccc(Nc2ncc(-c3ccccc3)o2)cc1 |  |  |  | > 10
46 | CN(C)CCNC(=O)Nc1ccc(N(C)c2ccnc(Nc3ccc(CS(C)(=O)=O)cc3)n2)cc1 |  |  |  | > 10
47 | Nc1ncnc2occ(-c3ccc(NC(=O)Nc4cccc(C(F)(F)F)c4)cc3)c12 |  |  |  | 5.2
48 | CNC(=O)c1cncc(/C=C/c2ccccc2Cl)c1 |  |  |  | > 10
49 | Cn1c(-c2nonc2N)nc2cnccc21 |  |  |  | > 10
50 | C[C@@H](Oc1cc(-n2cnc3ccc(OC4CCN(C)CC4)cc32)sc1C(N)=O)c1ccccc1Cl |  |  |  | 0.9
51 | CS(=O)(=O)CCNCc1ccoc1-c1ccc2ncnc(Nc3ccc(OCc4ccccc4)cc3)c2c1 |  |  |  | > 10
52 | c1cnn2ncc(-c3ccnc(NCCCN4CCOCC4)n3)c2c1 |  |  |  | > 10
53 | NC(=O)c1sc(-n2cnc3ccc(C(F)(F)F)cc32)cc1OCc1ccccc1Br |  |  |  | > 10
54 | CCN1CCC(CC(=O)Nc2n[nH]c3nnc(-c4cccc(F)c4F)cc23)CC1 |  |  |  | 5.1
55 | Nc1nc(-c2cccc(Cl)c2)c(-c2ccc3ncccc3n2)s1 |  |  |  | > 10
56 | CC(=O)Nc1cccc(C#Cc2cncnc2Nc2ccc(OCc3cccc(F)c3)c(Cl)c2)n1 |  |  |  | > 10
57 | COc1ccc(Nc2ncc(-c3ccccc3)o2)cc1OC |  |  |  | > 10
58 | COc1ccc(-c2oc3ncnc(N)c3c2-c2ccc(NC(=O)Nc3cc(C(F)(F)F)ccc3F)cc2)cc1 |  |  |  | > 10
59 | CC(C)(CO)CNC(=O)c1ccc2[nH]c(O)c(N=Nc3ccc(S(N)(=O)=O)cc3)c2c1 |  |  |  | > 10
60 | CCc1cccc(CC)c1/C=C/c1cncc(C(=O)NC)c1 |  |  |  | > 10
61 | O=C(Nc1ccc(Oc2ccc3nc(NC(=O)c4ccco4)[nH]c3c2)cc1)Nc1cc(C(F)(F)F)ccc1F |  |  |  | > 10
62 | CNC(=O)c1cncc(/C=C/c2ccccc2C)c1 |  |  |  | > 10
63 | Cc1cc(O)cc(C)c1/C=C/c1cncc(-c2nn[nH]n2)c1 |  |  |  | > 10
